Assay results from PMC5775280, “Functional Characterization and Signaling Systems of Corazonin and Red Pigment Concentrating Hormone in the Green Shore Crab, Carcinus maenas” (Frontiers in Neuroscience, 2018).
pEC50: −log10 of the molar value. Peptide text beside a SMILES is read from it.

What was measured:
[1] = biological target: T1, C. maenas CRZR (corazonin receptor) (Carcinus maenas, UniProt A0A2L0WQE5); experiment: Aequorin luminescence Ca2+ mobilization in CHO-K1-Aeq cells transiently expressing CRZR; type: cell-based
T1 sequence (A0A2L0WQE5 1-617): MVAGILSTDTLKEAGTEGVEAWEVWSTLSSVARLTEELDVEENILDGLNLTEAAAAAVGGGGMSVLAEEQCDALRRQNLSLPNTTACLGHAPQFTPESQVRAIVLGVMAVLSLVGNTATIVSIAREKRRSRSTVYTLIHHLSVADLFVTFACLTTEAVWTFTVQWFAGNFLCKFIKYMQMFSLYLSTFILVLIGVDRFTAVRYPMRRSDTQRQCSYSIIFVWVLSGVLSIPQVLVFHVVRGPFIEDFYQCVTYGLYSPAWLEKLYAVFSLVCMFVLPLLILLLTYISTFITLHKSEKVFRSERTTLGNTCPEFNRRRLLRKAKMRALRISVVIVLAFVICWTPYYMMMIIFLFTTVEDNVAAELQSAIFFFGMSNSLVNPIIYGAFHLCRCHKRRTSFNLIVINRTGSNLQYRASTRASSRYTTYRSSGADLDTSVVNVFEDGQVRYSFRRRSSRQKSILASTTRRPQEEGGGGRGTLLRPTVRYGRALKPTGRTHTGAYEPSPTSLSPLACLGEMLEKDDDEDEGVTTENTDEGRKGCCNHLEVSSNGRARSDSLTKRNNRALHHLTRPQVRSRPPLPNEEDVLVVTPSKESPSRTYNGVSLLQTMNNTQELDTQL
Protocol: Chinese hamster ovary (CHO-K1) cells containing stably expressed apoaequorin (Perkin Elmer, Boston, MA) and either Gα16 or Gq subunit (control cells) were cultured in Dulbecco's Modified Eagle Medium (DMEM) F-12 Nutrient Mixture GlutaMax (Gibco®) supplemented with 10% fetal bovine serum (Gibco®). Cells were maintained in vented T75 flasks at 37°C in 5% CO2.
Cells grown in a monolayer to approximately 60% confluency in T75 flasks were transfected with pcDNA3.1 constructs using FugeneHD (Promega) according to the manufacturer's recommendations. Briefly, transfection medium was prepared by combining 800 μl Opti-MEM® (Gibco) with 10 μg vector and 30 μl Fugene HD in a 2 ml polystyrene tube and incubated for 10 min at room temperature. The transfection reagent was added to 5 ml of fresh culture media and the cells incubated overnight at 37°C in 5% CO2. After 24 h, an additional 10 ml of culture media were added to the flasks and the cells returned to 37°C at 5% CO2 for a further overnight incubation.
On the day of the assay, cells were detached from the culture flask by incubating for 12 min in 5 ml 0.2% EDTA in PBS. The cells were washed with 10 ml DMEM clear DMEM/F-12 containing L-glutamine, 15 mM HEPES and moved to 50 ml centrifuge tubes. Cells were centrifuged for 5 min at 260 g and resuspended to a concentration of 5 × 10^6 cells ml^−1 in 0.2 μm filtered BSA medium (DMEM/F-12 containing L-glutamine, 15 mM HEPES + 0.1% BSA). Coelenterazine h (Invitrogen, Paisley, UK) was added to a concentration of 5 μM and the cells incubated for 4 h in the dark at room temperature whilst gently rocking. The cells were diluted 10-fold and incubated for a further 60 min before use in the assay. Synthetic peptides (GeneCust, Dudelange, Luxembourg) were reconstituted in 30% acetonitrile, dried in small aliquots by vacuum centrifugation and subsequently redissolved in BSA medium. Fifty microliter aliquots were then dispensed into quadruplicate wells of a white 96-well plate (OptiPlate, PerkinElmer). Cell suspensions were gently stirred and injected in 50 μl aliquots into each well using a Mithras LB 940 microplate reader (Berthold Technologies, Bad-Wildbad, Germany) and light emission (Ca^2+ response) recorded for 30 s. Cells were then lysed by injection of 0.3% Triton-X in BSA medium and light emission recorded for a further 10 s to measure total Ca^2+ response. BSA medium was used for blank measurements (6 replicate wells per plate) and mock transfection with empty vectors carried out for negative controls. Data was analyzed using MikroWin v5.18 (Mikrotek Laborsysteme GmbH) and SigmaPlot v.13 (Systat Software, Inc.). Receptor response was normalized against total Ca^2+ response.

[2] = test system: red and black epidermal chromatophores, dactyl of the 5th walking leg; experiment: Chromatophore pigment migration bioassay in vivo; set-up: species or system Carcinus maenas; details: injection after 40 min dispersion with 5 pmol PDH, 0.1–100 pmol/crab for RPCH or AKH, 100 pmol/crab for CRZ or ACP, scored 5 and 20 min after injection
Protocol: Pigmentary effector activity of […], Locusta migratoria AKH-I, and ACP were measured in vivo, using small (15-20 mm carapace width) C. maenas. Crabs were firstly adapted to a white background, light intensity 300 lx for 1 h. Pigment dispersion of red and black chromatophores in the […] of the 5th walking leg were microscopically observed and indices of dispersion scored according to Hogben and Slome ([1931]). Red and black chromatophores were firstly fully dispersed by injection of 5 pmol C. maenas pigment dispersing hormone ([…]) in 10 μl saline into the hypobranchial sinus, using hand-drawn glass microcapillaries. Chromatophore dispersion indices were scored at 0, 20, 40 min. Peptides were then injected and chromatophores subsequently scored after 5 and 20 min.

[3] = Hemolymph triglyceride levels after peptide injection; type: in vivo, Carcinus maenas; details: mean ± 1 SEM, n = 6, SEM
Protocol: Adipokinetic and glucose mobilizing activity of […] and ACP were performed by measurement of triglycerides in hemolymph ([…] et al., [2014]) and glucose (Chung and Webster, [1996]). Hemolymph samples (ca. 100 μl) were taken from crabs injected with each peptide at 0 and 90 min, and subsequently assayed.

[4] = test system: semi-isolated heart; experiment: Cardioactivity on semi-isolated heart preparations; set-up: species or system Carcinus maenas; details: superfusion, concentrations up to 10^−6 M, 20°C
Protocol: Cardioactivity of […], and ACP was performed on semi-isolated heart preparations of C. maenas. Crabs (ca. 65 mm carapace width) were ice-anesthetized and rapidly decerebrated before removing all limbs and the dorsal carapace to expose the heart and pericardial cavity. The heart was connected to a force transducer (MLT0210/A) via a micro fishing hook (size 28) and fine nylon (0.08 mm) monofilament. Connection to a PC with Chart 4.0 was via a Bridge Pod (ML301) and Powerlab 4/20 (AD Instruments Pty Ltd, Castle Hill, NSW, Australia). Transducer gain was set at maximum sensitivity (200 μV). Heart preparations were initially perfused with C. maenas physiological saline (Saver et al., [1999]) at room temperature (20°C). Once a stable heart output was achieved, hearts were firstly perfused with 1 ml saline, followed by increasing concentrations of peptides, applied in 1 ml. Crustacean cardioactive peptide (CCAP) (Bachem, Bubendorf, Switzerland), or proctolin (Sigma, Poole, UK) were positive controls (10^-11-10^-7 M). Test peptides ([…]) were perfused at 10^-8-10^-6 M for approximately 2 min at each concentration.

[5] = Hemolymph triglyceride levels after peptide injection; type: in vivo, Carcinus maenas; details: lipid mobilization bioassay

In the case of `CC(C)C[C@H](NC(=O)[C@@H]1CCC(=O)N1)C(=O)N[C@@H](CC(N)=O)C(=O)N[C@@H](Cc1ccccc1)C(=O)N[C@@H](CO)C(=O)N1CCC[C@H]1C(=O)NCC(=O)N[C@@H](Cc1c[nH]c2ccccc12)C(N)=O` [RPCH] (HELM PEPTIDE1{[Glp].L.N.F.S.P.G.W.[am]}$$$$V2.0), the “binding to CRZR at extremely high concentrations” value ([1]; 0.6–20 μM) was “some dose-dependent binding”, the pEC50 ([1]; CHO-K1-Aeq cells (without Gα16) transiently expressing CRZR, luminescence response normalized to total Ca2+ response, dose response curves, means of n = 4) was < 4.70 and the “pigment migration (concentration) in red and black epidermal chromatophores” value [2] was “dose-dependent concentration of pigment in the red (but not the black) chromatophores”. For the same compound, the “hemolymph triglyceride levels, 0 min” value ([3]; injection 100 pmol per crab) was 0.14 ± 0.14 µg/µL, the “hemolymph triglyceride levels, 90 min” value ([3]; injection 100 pmol per crab, no significant change over 90 min) was 0.86 ± 0.4 µg/µL and the “hemolymph triglyceride levels, 0 min” value ([3]; repeat experiment, injection 10 pmol) was 0.49 ± 0.27 µg/µL. For the same compound, the “hemolymph triglyceride levels, 90 min” value ([3]; repeat experiment, injection 10 pmol, no significant change) was 0.20 ± 0.28 µg/µL, the “hemolymph triglyceride levels, 0 min” value ([3]; repeat experiment, injection 100 pmol) was 1.65 ± 0.59 µg/µL and the “hemolymph triglyceride levels, 90 min” value ([3]; repeat experiment, injection 100 pmol, no significant change) was 0.78 ± 0.44 µg/µL. For the same compound, the “cardioacceleratory effect on semi-isolated hearts” value [4] was “completely without cardioacceleratory effect” and the “effect on hemolymph diacylglycerol levels” value [5] was “completely without effect”.
